Where two headings read alike, the source gives them in different places.
Assays:
[1] = Plasma drug exposure in nude mice; assay type: in vivo; settings: for Cmax / AUC(0-t): po, 10 mg/kg
Description: Plasma samples were prepared and analyzed for compound (1) by LC/MS/MS. Mean plasma concentrations were calculated from 2 animals/group/time point. Plasma samples with concentration below the limit of quantification (<12.5 ng/ml) were set to zero. The pharmacokinetic parameters were estimated from the mean plasma concentration data. Sampling times were reported as nominal time. The pharmacokinetic parameters reported are the maximum plasma concentration (Cmax), the area under the plasma concentration-time curve from zero to 8 hr (AUC0-8 hr), and dose normalized AUC (AUC0-8 hr/Dose). The Cmax values were taken directly from the plasma concentration-time profiles […] without any extrapolation. The AUC was calculated using the linear trapezoidal rule.

[2] = mouse, in vivo, 10 mg/kg
Description: Treatment for the MiaPaca2 study began on Feb. 8, 2007 (day 17 post tumor implant), for AsPC1 on Mar. 23, 2007 (day 9 post tumor implant), and for the BxPC3 study on May 30, 2007 (day 8 post tumor implant). Oral vehicle or the Compound (1) suspension was dosed using a sterile 1 cc syringe and 18-gauge gavage needle (0.2 ml/animal) once daily (qd) for 21-28 days, or using an intermittent schedule (7 days on, 7 days off, 7 days on (7+/7−/7+), 7 days on, 7 days off (7+/7−), 3 days on, 4 days off (3+/4−), or 14 days on, 14 days off (14+/14−)). Gemcitabine was administered to the mice intraperitoneally (ip) q3d (every 3 days) using a 1 cc syringe and 26 gauge needle.
Weight loss was graphically represented as percent change in mean group body weight, using the formula: ((W−W0)/W0)×100, where ‘W’ represents mean body weight of the treated group at a particular day, and ‘W0’ represents mean body weight of the same treated group at initiation of treatment.

## CC(C)(C(=O)NCC(F)(F)C(F)(F)F)C(=O)N[C@@H]1C(=O)Nc2ccccc2-c2ccccc21 [Compound (1), 2,2-Dimethyl-N—((S)-6-oxo-6,7-dihydro-5H-dibenzo[b,d]azepin-7-yl)-N′-(2,2,3,3,3-pentafluoro-propyl)-malonamide]
[1]; independent PK study in nude mice, up to 30 mg/kg
  dose proportionality of plasma exposure: excellent dose proportionality
[1]; mouse
  oral bioavailability: moderate to high
[1]; nude, mouse, plasma, 10 mg/kg po qd, Day 21 (chronic dosing)
  Cmax: 708 ng/mL
[1]; nude, mouse, plasma, 10 mg/kg po qd, Day 21 (chronic dosing), read-out: AUC0-8 hr
  AUC(0-t): 923 ng·h/mL
[1]; nude, mouse, plasma, 10 mg/kg po, Day 1 (single dose, naïve mice)
  Cmax: 559 ng/mL
[1]; nude, mouse, plasma, 10 mg/kg po, Day 1 (single dose, naïve mice), read-out: AUC0-8 hr
  AUC(0-t): 1280 ng·h/mL
[1]; nude, mouse, plasma, oral daily dosing of 10 mg/kg, read-out: Exposures (AUC24h) producing efficacy
  AUC(0-t): ~1100 ng·h/mL
[1]; nude, mouse, plasma, oral daily dosing of 10 mg/kg, read-out: Exposures producing efficacy (AUC24/day)
  AUC: ~1100 ng·h/mL
[2]
  mice with >20% body weight loss deemed toxicity-related: one

From patent US8741889B2, “Method of treating non-small cell lung cancer and colon cancer with gamma-secretase inhibitor” (Hoffmann-La Roche Inc, priority 2008, dated 2014)
